Values of other authors in publication PMC10893631, “Receptor-based pharmacophore modeling, molecular docking, synthesis and biological evaluation of novel VEGFR-2, FGFR-1, and BRAF multi-kinase inhibitors” (BMC Chemistry, 2024).

Molecular target: T1, VEGFR-2 (Homo sapiens, UniProt P35968)
T1 construct: purchased BPS Biosciences 40325
Parameters: method as in PMID 17696416
Details: cited from earlier work

T1 sequence (P35968 20-1356): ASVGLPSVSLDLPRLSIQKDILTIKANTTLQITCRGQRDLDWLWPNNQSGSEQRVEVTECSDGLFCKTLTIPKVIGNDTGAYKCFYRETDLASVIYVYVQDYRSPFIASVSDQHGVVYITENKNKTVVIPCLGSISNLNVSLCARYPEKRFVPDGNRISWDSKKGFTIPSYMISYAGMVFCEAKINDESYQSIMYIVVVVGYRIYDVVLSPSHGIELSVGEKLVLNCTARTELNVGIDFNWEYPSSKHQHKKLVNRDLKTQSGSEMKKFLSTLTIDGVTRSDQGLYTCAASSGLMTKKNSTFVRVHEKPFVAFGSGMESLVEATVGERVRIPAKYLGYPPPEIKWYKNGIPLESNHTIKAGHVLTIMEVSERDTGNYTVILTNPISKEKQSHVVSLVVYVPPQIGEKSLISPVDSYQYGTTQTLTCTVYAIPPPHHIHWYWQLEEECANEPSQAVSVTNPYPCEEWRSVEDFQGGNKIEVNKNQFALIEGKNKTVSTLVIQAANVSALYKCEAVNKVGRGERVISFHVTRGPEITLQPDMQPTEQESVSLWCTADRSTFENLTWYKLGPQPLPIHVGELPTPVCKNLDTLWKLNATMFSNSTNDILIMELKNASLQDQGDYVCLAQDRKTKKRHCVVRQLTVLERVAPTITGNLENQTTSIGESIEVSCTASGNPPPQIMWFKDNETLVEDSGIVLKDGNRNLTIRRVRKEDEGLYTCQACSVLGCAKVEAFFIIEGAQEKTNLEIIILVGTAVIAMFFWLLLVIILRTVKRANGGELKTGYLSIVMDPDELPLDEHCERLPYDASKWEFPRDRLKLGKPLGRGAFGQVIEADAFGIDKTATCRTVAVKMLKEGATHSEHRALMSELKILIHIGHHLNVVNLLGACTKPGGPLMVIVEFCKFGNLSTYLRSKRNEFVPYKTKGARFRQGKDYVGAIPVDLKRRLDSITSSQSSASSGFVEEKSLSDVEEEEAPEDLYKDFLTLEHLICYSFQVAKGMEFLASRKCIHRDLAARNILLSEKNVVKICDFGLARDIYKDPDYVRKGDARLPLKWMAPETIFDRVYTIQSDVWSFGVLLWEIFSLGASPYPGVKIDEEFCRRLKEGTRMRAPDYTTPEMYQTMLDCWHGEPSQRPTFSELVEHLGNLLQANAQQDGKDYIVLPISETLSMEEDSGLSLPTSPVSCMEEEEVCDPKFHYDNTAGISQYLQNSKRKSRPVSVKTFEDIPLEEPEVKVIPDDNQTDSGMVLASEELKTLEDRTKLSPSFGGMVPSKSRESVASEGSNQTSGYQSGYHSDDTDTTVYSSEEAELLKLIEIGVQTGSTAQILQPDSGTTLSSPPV

Structure (SMILES): CNC(=O)c1cc(Oc2ccc3[nH]c(Nc4ccc(C(F)(F)F)c(Cl)c4)nc3c2)ccn1 [II]
- Ki: 8.7 nM
